Experimental findings from patent publication US11702403B2, “EAAT2 activators and methods of using thereof” (OHIO STATE INNOVATION FOUNDATION, priority 2018, dated 2023) are described below.

As a reminder, the EC50 is the midpoint of the concentration-response curve.

In test [1] the test system is CA3-CA1 LTP in the hippocampus. Description: Long-term potentiation (LTP) in acute hippocampal slices of treated wild-type mice. The conditions noted are these: 10 mg/kg for 7 days, vs vehicle, up to 30 min after LTP induction. Format: in vivo. Here is the method: Mice were treated with compound at 40 mg/kg (or as depicted) and forebrains were harvested for the gliosome preparation 24 hr (or as described) post-treatment. FIG. 2A: Western blots show dose-dependent increase of EAAT2 protein levels. FIG. 2B: Time-dependent fold increase in EAAT2 protein expression in response to compound treatment at 4 hours (1.54±0.13) and 24 hours (1.98±0.19) post-treatment. Quantification of EAAT2 expression time course (normalized to flotilin; n=4/group). Data represented as mean SEM and analyzed using one-way ANOVA with Tukey post-hoc test. *p<0.05, **p<0.01. FIG. 2C: Compound treatment enhances CA3-CA1 LTP in the hippocampus. Mice were treated with vehicle or compound for seven days and acute hippocampal sections were collected for LTP recordings. […] Data represented as mean SEM analyzed using one-way ANOVA with Bonferroni post-hoc tests. […]
At 24 hours post-treatment, mice were euthanized and forbrains were harvested. […] Acute hippocampal slices were then collected and assessed for changes in long-term potentiation (LTP).
Wild-type C57BL/6 mice (2-3 months old) were treated orally with compound 101 at 0.01, 0.033, 0.1, 0.33, 1, 3.33, 10, 20, 40, 60, and 100 mg/kg/day (voluntary ingestion of compound in honey) for seven or 28 days. […] Mice were then euthanized and acute hippocampal slices were collected and assessed for changes in long-term potentiation (LTP).

Test [2] relates to mouse model of Gulf War Illness (GWI). The test is described as follows: Mouse model of Gulf War Illness, mood and cognitive behavior tests. The test is classed as in vivo, C57BL/6J mice. How it is done: Three months old C57BL/6J mice were randomly divided into three groups: control (no GWI, with vehicle), GWI with vehicle, and GWI with compound. For GWI groups, mice were exposed to GWI chemicals and chronic unpredictable stress daily for 6 weeks. GWI chemicals include pyridostigmine (1.3 mg/kg), permethrin (0.13 mg/kg), and DEET (40 mg/kg). The stress regimen included exposure to two different stressors each day. The stressors used in this study include restraint, cage rotation, hot stress, cold stress, predator sound, periods of darkness during the light cycle, wet bedding, replace bedding with water, cage tilt at 45 degree angle, and stroboscopic lighting. […] At 3-months post-exposure, mice were subjected to several behavior tests to assess mood and cognitive functions. These tests included dark and light exploration, elevated plus maze, novelty suppressed feeding, tail suspension open field, novel object recognition, and Barnes maze tests.
After one month of treatment, mice were evaluated for mood and cognitive functions.

The next test concerns GSK3β. Description: Phosphorylation state of kinases in forebrain TCL of rTg4510 mice. To be noted: within one hour of treatment, single dose. The test is classed as in vivo. How it is done:
(§1) FIGS. 7A and 7B illustrate the effect of compound treatment on phosphorylated tau in total lysates (TCL) and in the Sarkosyl insoluble (P3) fraction (n=4/group). Dashed-line represents expression in rTg4510 vehicle group.
To identify which kinase/phosphatase is involved, forebrain TCL samples were collected from rTg4510 mice one-hour after a single dose. The phosphorylation (activation) state of kinases that have been reported to target tau as a substrate were assessed. […] This form of phosphorylation inhibits GSK3β activity. Therefore, inactivation of the GSK3β kinase may mediate reduced tau phosphorylation in rTg4510 mice after compound treatment.

A further test concerns human EAAT2. The test is described as follows: EAAT2 protein levels in PA-EAAT2 cells by Western blot. The test is classed as cell-based. Here is the method: Compounds were evaluated in PA-EAAT2 cells, a primary astrocyte stably expressing human EAAT2 mRNAs (Kong et al., J Clin Invest. 2014:1255-67). Cells were treated with compound at 0.0375, 0.075, 0.15, 0.3, 0.6, 1.25, 2.5, 5, 10 μM for 24 hr and then harvested for measuring EAAT2 protein levels by Western blot analysis.
For orientation: A western blot detects proteins with antibodies after separation by electrophoresis.

For test [3], the system named is EAAT2. The test is described as follows: EAAT2 protein levels in forebrain gliosomes of wild-type FVB/NJ mice by Western blot. Format: in vivo. To be noted: oral 1, 2.5, 5, 10, 20, 40 mg/kg, 24 hours post-treatment. How it is done:
Mice were treated with compound at 40 mg/kg (or as depicted) and forebrains were harvested for the gliosome preparation 24 hr (or as described) post-treatment. FIG. 2A: Western blots show dose-dependent increase of EAAT2 protein levels. FIG. 2B: Time-dependent fold increase in EAAT2 protein expression in response to compound treatment at 4 hours (1.54±0.13) and 24 hours (1.98±0.19) post-treatment. Quantification of EAAT2 expression time course (normalized to flotilin; n=4/group). Data represented as mean SEM and analyzed using one-way ANOVA with Tukey post-hoc test. *p<0.05, **p<0.01. FIG. 2C: Compound treatment enhances CA3-CA1 LTP in the hippocampus. Mice were treated with vehicle or compound for seven days and acute hippocampal sections were collected for LTP recordings. […] Data represented as mean SEM analyzed using one-way ANOVA with Bonferroni post-hoc tests. Statistical significance denoted as ***p<0.001.
At 24 hours post-treatment, mice were euthanized and forbrains were harvested. Gliosomes (astrocytic processes) were then isolated for measuring EAAT2 protein levels by Western blot analysis. […] This induction could be seen as early as 4 hours post-treatment (FIG. 2B). […] Acute hippocampal slices were then collected and assessed for changes in long-term potentiation (LTP).

The subject of test [4] is EAAT2. The test is described as follows: EAAT2 protein levels in brains of Beagle dogs by Western blot. The conditions noted are these: oral 20 mg/kg; 0.5, 4, 24 hours post-treatment and seven daily treatment. The test is classed as in vivo.
The subject of test [5] is EAAT2. The test is described as follows: EAAT2 protein levels in brains of wild-type C57BL/6 mice by Western blot. The test is classed as in vivo. To be noted: 10 mpk p.o. How it is done: Mice then were euthanized and brains were harvested for examining EAAT2 protein levels by Western blot analysis.
Wild-type C57BL/6 mice (2-3 months old) were treated orally with compound 101 at 0.01, 0.033, 0.1, 0.33, 1, 3.33, 10, 20, 40, 60, and 100 mg/kg/day (voluntary ingestion of compound in honey) for seven or 28 days. Mice then were euthanized and brains were harvested for examining EAAT2 protein levels by Western blot analysis. […] To determine the functional consequences of the increased EAAT2 to the synaptic plasticity, wild-type mice were treated with vehicle or compound 101 at 0.033, 0.33, and 3.3 mg/kg for seven days. Mice were then euthanized and acute hippocampal slices were collected and assessed for changes in long-term potentiation (LTP).

For a further test, the system named is tau. Description: Tau expression and phosphorylation in total cell lysates and Sarkosyl insoluble fractions of rTg4510 forebrains. The test is classed as in vivo, mice.
From the text: as §1
We, therefore, investigated if the compound could reduce toxic forms of tau. […] Four antibodies, which recognized different phosphorylation sites or pathological forms of tau, were used: PHF1 recognized Ser 396 & Ser404; AT8 recognized Ser202 & Thr205; MC-1 recognized neurofibrillary tangles and Tau5 recognized all of tau (phosphorylated and non-phosphorylated isoforms). […] There was an especially significant reduction in the 64 kDa (hyperphosphorylated) variant for each antibody tested; it has been reported that the 64 kDa variant was strongly correlated with neurodegeneration.
[…] The phosphorylation (activation) state of kinases that have been reported to target tau as a substrate were assessed. […] This form of phosphorylation inhibits GSK3β activity. Therefore, inactivation of the GSK3β kinase may mediate reduced tau phosphorylation in rTg4510 mice after compound treatment.

The mark [6] stands for this setting: prevention: 20 mg/kg daily from beginning of 6-weeks exposure, tested 3-months post-exposure.
The mark [7] stands for this setting: treatment: 20 mg/kg at five months post-exposure, one month of treatment.

`CN(C)CCn1nc(-c2ccccn2)ccc1=O` [Compound 100, 2-(2-(dimethylamino)ethyl)-6-(pyridin-2-yl)pyridazin-3(2H)-one]: the “CA1 field potential responses to stimulation of CA3 afferents (LTP)” value in test [1] is on record as “significantly increased responses”. For the same molecule, in test [2] (setting [6]), the “anxiety- and depression-like behaviors” value is listed as “significantly reduced”; the cognitive functions result is given as “improved cognitive functions”. In test [2] (setting [7]), the “anxiety- and depression-like behaviors” value is “reduced anxiety- and depression-like behaviors”; the cognitive functions result was “significantly improved”. Further, in the test on GSK3β, the “phosphorylation of GSK3β at Ser9” value was “approximately 2 fold”. Besides, the “concentration that reaches maximum activity” value in the test with human EAAT2 (PA-EAAT2 cells, 24 hr, tested 0.0375-10 μM) was 0.6 µM. Also, in the test with human EAAT2 (primary astrocytes, read-out: EAAT2 induction in vitro - primary astrocytes (EC50)), the EC50 was 250 nM. The “EAAT2 protein levels in gliosomes” value with EAAT2 [3] is on record as “induced EAAT2 expression in a dose-dependent manner”. Also, the “EAAT2 protein levels in dog brains” value in the test on EAAT2 [4] is listed as “increased in a time-dependent manner”. Further, the “EAAT2 induction in vivo in wild-type mice - 7-day dosing by p.o.” value with EAAT2 [5] (7-day dosing) is 1.63-fold @ 10 mpk. For the same molecule, the “EAAT2 induction in vivo in wild-type mice - 28-day dosing by p.o.” value in the test on EAAT2 [5] (28-day dosing) is on record as 2.37-fold @ 10 mpk. Besides, the “EAAT2 induction in vivo in wild-type mice - single dose by p.o.” value with EAAT2 [5] (single dose) is recorded as 1.56-fold @ 10 mpk. Moreover, the “total-tau (transgene expression)” value in the test on tau (four months old, after two months of treatment) is “no reduction in total-tau”. Further, the “total tau in the P3 fraction” value in the test on tau (long-term treatment, Sarkosyl insoluble (P3) fraction) is listed as “very significant reduction”. Also, the “phosphorylated (AT8 and PHF1) and conformation specific (MC1) forms of tau” value with tau (long-term treatment, TCL and P3 fraction) is “reduced”. In the test on tau (single dose, 24 hours later), the “all forms of tau in the P3 fraction” value is “very clear reduction”; the “pTau (AT8 and PHF1) in TCL” value is “significant decrease”; the “total tau (Tau-5) or tau tangles (MC1) in TCL” value was “no change”.
